Data reported in article PMC4490394 (Scientific Reports, 2015).
Several values for one entry are separate records, joined by “and”; a condition that tells them apart may be missing. Equal entries are not always repeated.

Experiments:
[1] = system: DU-145 prostate cancer cells; experiment: Viability of AR-negative cells (WST-1); type: cell-based, human; conditions: increasing concentrations, 4 days
[2] = Body weight of mice bearing subcutaneous VCaP xenograft tumors; type: in vivo, castrated nude mice; conditions: for Change in body weight (%) d 3 / Change in body weight (%) d 9 / Change in body weight (%) d 16 / Change in body weight (%) d 23 / Change in body weight (%) d 30 / Change in body weight (%) d 37: individual animals, vs BW before treatment, 50 mg/kg
Protocol: BALB/c nude male mice (7 weeks old from Charles River, Germany) were subcutaneously injected with 2 million VCaP cells in 100 μL of RPMI-1640 medium and Matrigel (BD) (1:1). Tumor growth was monitored twice weekly by caliper measurements. The volume of the tumor was calculated according to the formula W^2 × L/2 (mm^3), where W is the shorter and L the longer diameter of the tumor. When the average tumor volume reached ~200 mm^3, mice were castrated or SHAM-operated under Avertin anesthesia. […] For all in vivo studies, Macrocol® (Merck) + propylene glycol +5% glucose (50:30:20, v/v/v) was used as a vehicle.

[3] = molecular target: T1, AR(W741L) (Homo sapiens, UniProt P10275, W742L)
T1 sequence (P10275 1-920 W742L): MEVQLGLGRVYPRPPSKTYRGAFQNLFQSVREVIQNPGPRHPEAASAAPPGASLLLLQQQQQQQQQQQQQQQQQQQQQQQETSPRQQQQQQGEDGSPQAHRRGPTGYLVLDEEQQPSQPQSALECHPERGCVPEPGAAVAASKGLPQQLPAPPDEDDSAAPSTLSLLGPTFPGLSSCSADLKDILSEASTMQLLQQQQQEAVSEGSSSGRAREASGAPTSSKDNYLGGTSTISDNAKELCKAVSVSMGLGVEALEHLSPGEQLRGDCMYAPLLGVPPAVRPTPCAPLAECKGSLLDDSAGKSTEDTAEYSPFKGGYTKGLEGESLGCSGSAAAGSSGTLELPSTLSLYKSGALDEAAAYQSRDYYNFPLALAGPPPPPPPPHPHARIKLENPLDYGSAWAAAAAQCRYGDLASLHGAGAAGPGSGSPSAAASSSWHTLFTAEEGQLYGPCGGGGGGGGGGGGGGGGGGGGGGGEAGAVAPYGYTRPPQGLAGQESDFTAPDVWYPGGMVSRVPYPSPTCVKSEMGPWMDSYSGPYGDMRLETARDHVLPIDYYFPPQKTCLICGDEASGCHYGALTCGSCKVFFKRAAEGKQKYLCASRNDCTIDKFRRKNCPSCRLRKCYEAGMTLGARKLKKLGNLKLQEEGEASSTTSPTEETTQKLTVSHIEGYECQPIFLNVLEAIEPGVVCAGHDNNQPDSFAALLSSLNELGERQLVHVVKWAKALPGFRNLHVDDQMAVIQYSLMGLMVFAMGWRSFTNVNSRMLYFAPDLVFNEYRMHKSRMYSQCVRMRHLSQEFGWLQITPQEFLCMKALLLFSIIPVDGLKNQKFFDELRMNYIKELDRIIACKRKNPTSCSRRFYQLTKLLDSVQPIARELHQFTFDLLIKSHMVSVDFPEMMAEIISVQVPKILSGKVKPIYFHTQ
Protocol: For one well in a 96-well plate, 190 ng of reporter construct DNA and 10 ng of receptor construct DNA were diluted in Opti-MEM® (Gibco). […] Luciferase activity was measured as described above.

In the case of `CC(O)c1cc(C(=O)N[C@@H](C)Cn2ccc(-c3ccc(C#N)c(Cl)c3)n2)[nH]n1` (stereo partly drawn) [ODM-201], the “effect on viability of DU-145 cells” value [1] is reported as “no effect”, the “body weights during the treatment” value ([2]; 50 mg/kg twice daily oral, 37 days) is reported as “did not decrease significantly” and the “Change in body weight (%) d 3” value ([2]; ODM-201 50 mg/kg bid oral) is reported as -0.4% and 0.0% and -2.8% and -1.9% and -1.3% and -4.9% and -2.9%. For the same compound, the “Change in body weight (%) d 9” value ([2]; ODM-201 50 mg/kg bid oral) was -2.1% and -2.5% and -9.8% and -0.9% and -0.5% and -4.5% and -6.9% and -1.9%, the “Change in body weight (%) d 16” value ([2]; ODM-201 50 mg/kg bid oral) was 1.7% and -4.9% and 5.6% and 3.3% and 0.4% and -4.5% and -1.0% and the “Change in body weight (%) d 23” value ([2]; ODM-201 50 mg/kg bid oral) was -1.7% and -6.5% and -2.8% and 0.5% and -5.4% and -11.4% and -7.2%. For the same compound, the “Change in body weight (%) d 30” value ([2]; ODM-201 50 mg/kg bid oral) was -1.3% and 0.8% and -6.1% and -3.8% and 3.8% and -3.6% and -1.6% and -3.4%, the “Change in body weight (%) d 37” value ([2]; ODM-201 50 mg/kg bid oral) was 0.4% and -6.1% and -0.5% and -6.7% and -1.2% and -6.3% and the “Change in body weight (%) d 3” value ([2]; ODM-201 50 mg/kg qd oral) was -2.5% (2×) and -1.3% and -2.0% and -2.9% and -0.5% and -2.3% and -3.8% and -4.7% and 9.0%. The “Change in body weight (%) d 9” value ([2]; ODM-201 50 mg/kg qd oral) was 2.2% and -1.7% and 3.5% and 6.9% and -4.9% and 3.9% and 1.8% and -0.8% and -7.7% and 7.5%, the “Change in body weight (%) d 16” value ([2]; ODM-201 50 mg/kg qd oral) was -1.3% and 3.0% and 14.7% and 2.5% and -5.7% and 6.9% and 0.5% and 3.8% and 1.3% and 9.5% and the “Change in body weight (%) d 23” value ([2]; ODM-201 50 mg/kg qd oral) was 6.0% and -8.2% and 4.4% and -4.9% and -1.3% and -0.5% and 0.9% and -0.4%. For the same compound, the “Change in body weight (%) d 30” value ([2]; ODM-201 50 mg/kg qd oral) was 1.5% and -3.9% and 2.5% and 8.3% and -4.1% and 2.0% and 1.8% and 0.0% and -0.4%, the “Change in body weight (%) d 37” value ([2]; ODM-201 50 mg/kg qd oral) was 5.0% and -6.5% and 1.5% and 6.9% and -7.8% and 2.5% and 1.8% and -0.8% and -4.6% and the “functional activity (agonist/antagonist) on AR(W741L)” value [3] was “full antagonists”.
